Assays:
CYP1A2 = target: T1, CYP1A2 (Homo sapiens, UniProt P05177); test: P450 inhibition 1A2; format: in vitro ADME
T1 sequence (P05177 1-516): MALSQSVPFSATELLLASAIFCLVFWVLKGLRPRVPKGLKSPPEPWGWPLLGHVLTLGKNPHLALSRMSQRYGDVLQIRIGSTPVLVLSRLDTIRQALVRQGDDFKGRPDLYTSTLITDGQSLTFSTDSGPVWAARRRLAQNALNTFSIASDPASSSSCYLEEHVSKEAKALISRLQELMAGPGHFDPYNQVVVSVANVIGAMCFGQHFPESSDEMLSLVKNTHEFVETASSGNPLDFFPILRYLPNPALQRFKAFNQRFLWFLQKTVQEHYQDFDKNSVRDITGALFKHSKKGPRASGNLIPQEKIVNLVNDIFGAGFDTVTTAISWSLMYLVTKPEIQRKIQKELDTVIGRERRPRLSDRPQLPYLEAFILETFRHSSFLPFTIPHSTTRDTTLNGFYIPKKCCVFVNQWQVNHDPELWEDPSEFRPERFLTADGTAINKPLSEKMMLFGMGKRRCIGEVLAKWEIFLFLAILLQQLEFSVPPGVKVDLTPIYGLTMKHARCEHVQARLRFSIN
Experimental: (§1) These assays were performed according to known methods as generally described in the following references: Conde-Ceide et al. ACS Med. Chem. Lett. 2015, 6, 716-720; Morris et al. J. Med. Chem. 2014, 57, 10192-10197; and Bubser et al. ACS Chem. Neurosci. 2014, 5, 920-942. Abbreviations which have been used in the descriptions of the following tables are; PPB is plasma protein binding; BHB is brain homogenate binding; and CLint is intrinsic clearance in hepatic microsomes.

[1] = Rat in vivo pharmacokinetics and brain distribution (i.v. cassette); conditions: iv, rat i.v. cassette injection
Experimental: Compound 12 was tested in several in vivo assays to investigate pharmacokinetics and brain distribution. Abbreviations which have been used in the descriptions of following tables are; CLp is plasma clearance; Vss is volume of distribution at steady state; Elim. t1/2 is half-life for elimination; Kp is tissue distribution partition coefficient; Kp,uu is unbound tissue distribution partition coefficient.

[2] = Human hepatic microsomal intrinsic clearance; format: in vitro ADME; conditions: human hepatic microsomes
Experimental: as §1

CYP2D6 = CYP2D6 (Homo sapiens, UniProt P10635); test: P450 inhibition 2D6; format: in vitro ADME
Sequence of CYP2D6 (P10635 whole entry): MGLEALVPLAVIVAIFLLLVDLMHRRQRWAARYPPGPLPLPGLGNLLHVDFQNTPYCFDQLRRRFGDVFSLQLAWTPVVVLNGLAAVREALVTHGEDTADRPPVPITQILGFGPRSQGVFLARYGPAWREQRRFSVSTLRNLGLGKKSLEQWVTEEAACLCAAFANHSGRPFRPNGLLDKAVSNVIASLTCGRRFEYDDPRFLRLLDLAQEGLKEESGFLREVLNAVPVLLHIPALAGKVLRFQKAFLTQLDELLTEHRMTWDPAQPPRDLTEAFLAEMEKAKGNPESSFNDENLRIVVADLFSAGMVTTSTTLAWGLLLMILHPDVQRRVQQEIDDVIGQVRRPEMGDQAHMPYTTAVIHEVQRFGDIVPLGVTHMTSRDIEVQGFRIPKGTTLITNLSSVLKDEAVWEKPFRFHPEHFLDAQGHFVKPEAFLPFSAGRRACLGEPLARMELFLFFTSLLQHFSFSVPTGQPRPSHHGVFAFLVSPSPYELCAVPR
Experimental: as §1

[3] = Rat brain homogenate binding (BHB); format: in vitro ADME
Experimental: as §1

[4] = Rat hepatic microsomal intrinsic clearance; format: in vitro ADME; conditions: rat hepatic microsomes
Experimental: as §1

human TREK-1 = target: T2, human TREK-1 (Homo sapiens, UniProt O95069); test: TREK-1 Manual Patch Clamp (hMPC) assay; format: cell-based; conditions: CHO-K1 cells stably expressing human TREK-1; whole-cell current at 0 mV
T2 construct: expressed in transfected cells
T2 sequence (O95069 1-426): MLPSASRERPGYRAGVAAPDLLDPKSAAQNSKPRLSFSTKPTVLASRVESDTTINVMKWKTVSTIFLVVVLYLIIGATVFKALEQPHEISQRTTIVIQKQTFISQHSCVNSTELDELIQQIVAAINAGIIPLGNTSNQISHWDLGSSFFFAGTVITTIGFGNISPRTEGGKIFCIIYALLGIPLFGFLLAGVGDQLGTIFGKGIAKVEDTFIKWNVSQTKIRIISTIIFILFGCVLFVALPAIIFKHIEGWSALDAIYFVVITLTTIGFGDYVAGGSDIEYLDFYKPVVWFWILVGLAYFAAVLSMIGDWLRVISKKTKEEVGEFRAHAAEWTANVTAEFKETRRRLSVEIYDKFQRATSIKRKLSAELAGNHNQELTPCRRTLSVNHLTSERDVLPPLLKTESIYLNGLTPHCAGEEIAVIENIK
Experimental: The term “patch clamp technique” herein refers to the “gold standard” technique for evaluating TREK channel pharmacology. The detail method is described below.
CHO-K1 cells stably expressing human TREK-1 or HEK293 cells stably expressing human TREK-2 are plated on glass coverslips, and voltage clamped in the whole-cell configuration of the patch clamp technique. Cells were voltage clamped at a holding potential of −80 mV and the stepped to 0 mV for 500 msec. The voltage was subsequently ramped from −120 mV to +80 mV over a 500 msec duration. This step-ramp protocol was repeated every 10 sec. The bathing solution contained the following: 135 mM NaCl, 5 mM KCl, 2 mM CaCl2, 1 mM MgCl2, 5 mM D-Glucose, 10 mM HEPES, 10 mM sucrose (adjusted to pH 7.4 with NaOH, 300 mosmol/kg H2O). The pipette solution contained the following: 135 mM KCl, 2 mM MgCl2, 1 mM EGTA, 10 mM HEPES, 2 mM Na2ATP (adjusted to pH 7.35 with KOH, 285 mosmol/kg H2O). Test compounds were dissolved into the bathing solution. Experiments on TREK-2 were terminated with the addition of the control compound (tert-butyl (3-((4-(benzyloxy)-2-methylphenyl)carbamoyl)-4-chlorophenyl)carbamate) so that maximal inhibition could be determined. The effects of test compound on the currents were calculated at 0 mV using the following equations:
For CHO cells expressing TREK-1 channel: % inhibition=(1-post current/pre current)×100
The compounds shown in Table 2 were prepared in an analogous manner with the appropriate starting materials, and evaluated in our TREK-1 Manual Patch Clamp (hMPC) assay.

plasma protein = test: Mouse plasma protein binding (PPB); format: in vitro ADME
Experimental: as §1

In the case of `CC(=O)N[C@H]1CC[C@@H](n2ncc(Cl)c2C(=O)Nc2ncc(C#Cc3ccccc3)cc2C)CC1` [Compound 12, 1-(cis-4-acetamidocyclohexyl)-4-chloro-N-(3-methyl-5-(phenylethynyl)pyridin-2-yl)-1H-pyrazole-5-carboxamide], the IC50 (CYP1A2) is reported as 8.6 µM, the Kp uu ([1]; brain, unbound tissue distribution partition coefficient, read-out: Rat brain: plasma Kp, uu) is reported as 0.19 and the clearance ([1]; plasma clearance, read-out: Rat CLp) is reported as 28 mL/min/kg. For the same compound, the half-life ([1]; plasma, half-life for elimination, read-out: Rat Elim. t1/2 (converted)) was 2 h, the Vd ([1]; plasma, volume of distribution at steady state, read-out: Rat Vss) was 4.7 L/kg and the CLint scaled [2] was 16 mL/min/kg. For the same compound, the IC50 (CYP2D6) was 4.5 µM, the “Rat BHB (% bound)” value [3] was 99.7 % bound and the CLint scaled [4] was 54 mL/min/kg. The IC50 (human TREK-1) was 0.06 µM and the “Mouse PPB (% bound)” value (plasma protein) was 99.2 % bound.

— US20240182445A1 (ONO PHARMACEUTICAL CO., LTD., priority 2019, published 2024)
